test system: human OA knee cartilage explants; assay: Gene expression in OA cartilage explants; type: cell-based; details: n = 7 donors, 24 h, normalized to 28S rRNA, relative to control; BMP7 1 nM (Figure 6A)
Description: To determine whether peptide p[63−82] has the potency to alter chondrocyte behavior in cartilage tissue, rather than isolated HACs, cartilage biopsies from OA knees were cultured in the presence of peptide p[63−82], alongside its scrambled version and full-length BMP7.
Figure 6 Peptide p[63−82] activity on OA knee joint tissues Human OA knee joint tissues were cultured for 24 h in the presence of BMP7, peptide p[63−82], or the scrambled version of peptide p[63−82] and compared to control conditions. (A) Cartilage tissues (n = 7 individual donors) were exposed to shown conditions and analyzed for COL2A1, COL10A1, and COX-2 mRNA expression by quantitative real-time PCR (normalized for 28S rRNA expression and relative to control conditions). (B) GAG release in medium from cartilage tissues (n = 5 individual donors) was determined, and data were calculated relative to the control condition. (C) PGE2 levels in culture supernatant from synovium (n = 5 donors). (D) PGE2 levels in culture supernatant from cartilage tissues from (B) (n = 5 donors). (E) PGE2 levels in culture supernatant from IPFP (n = 5 donors). (F) PGE2 levels in culture supernatant from the meniscus. Synovium, IPFP, and meniscus tissues were from the same 5 donors as the cartilage tissues in (B) and (C). PGE2 levels in conditions were calculated relative to controls for each donor. […] Statistical differences (unpaired two-tailed Student’s t test) were calculated to control condition: ∗p < 0.05, ∗∗p < 0.01, and ∗∗∗p < 0.001.
Cartilage was obtained from total knee arthroplasty of end-stage (K&L grades 3−4) OA patients and from resected knee cartilage from cartilage repair procedures of non-OA patients. […] The bioluminescent readout was performed by lysing cells in Passive Lysis Buffer (Promega) and measuring luciferase activity using the Berthold TriStar^2 LB 942 Modular Multimode Microplate Reader using the Luciferase Assay System for firefly luciferase (BRE and CAGA12) (Promega) and the Gaussia Luciferase Kit (New England Biolabs). […]

Q: How did the “COL2A1, COL10A1, and COX-2 mRNA expression in cartilage explants” value (from here on “COL2A1, COL10A1”) turn out when “BMP7: full-length recombinant bone morphogenetic protein 7 (R&D Systems), used at 1 nM” was run?
A: Its value is “comparable”.

Q: Which “COL2A1, COL10A1” value does the source give for H-AAYYSEGESAFPLNSYMNAT-OH [p[63−82]] here?
A: Its value is “induce COL2A1 while inhibiting COL10A1 and COX-2 expression”.

Q: “H-SEASPAMYYLNATANFYESG-OH [scrambled p[63−82], scrambled version of peptide p[63−82], reference compound]” was tested. Which “COL2A1, COL10A1” value did it give?
A: The value was “lacked this activity”.

From article PMC8022858, “Discovery of bone morphogenetic protein 7-derived peptide sequences that attenuate the human osteoarthritic chondrocyte phenotype” (Molecular Therapy. Methods & Clinical Development, 2021)
